In article PMC3416681, “The orthosteric agonist 2-chloro-5-hydroxyphenylglycine activates mGluR5 and mGluR1 with similar efficacy and potency” (2012):

Tests used:
mGluR1a = molecular target: T1, mGluR1a (Rattus norvegicus, UniProt P23385); experiment: whole-cell patch clamp, calcium current inhibition in SCG neurons expressing the receptor; format: cell-based
T1 construct: gene Grm1; splice variant mGluR1a (untagged and N-terminally myc-tagged, data combined)

mGluR5b = molecular target: T2, mGluR5b (Rattus norvegicus, UniProt P31424); experiment: as above; format: cell-based
T2 construct: gene Grm5; splice variant mGluR5b
T2 sequence (P31424 21-1203): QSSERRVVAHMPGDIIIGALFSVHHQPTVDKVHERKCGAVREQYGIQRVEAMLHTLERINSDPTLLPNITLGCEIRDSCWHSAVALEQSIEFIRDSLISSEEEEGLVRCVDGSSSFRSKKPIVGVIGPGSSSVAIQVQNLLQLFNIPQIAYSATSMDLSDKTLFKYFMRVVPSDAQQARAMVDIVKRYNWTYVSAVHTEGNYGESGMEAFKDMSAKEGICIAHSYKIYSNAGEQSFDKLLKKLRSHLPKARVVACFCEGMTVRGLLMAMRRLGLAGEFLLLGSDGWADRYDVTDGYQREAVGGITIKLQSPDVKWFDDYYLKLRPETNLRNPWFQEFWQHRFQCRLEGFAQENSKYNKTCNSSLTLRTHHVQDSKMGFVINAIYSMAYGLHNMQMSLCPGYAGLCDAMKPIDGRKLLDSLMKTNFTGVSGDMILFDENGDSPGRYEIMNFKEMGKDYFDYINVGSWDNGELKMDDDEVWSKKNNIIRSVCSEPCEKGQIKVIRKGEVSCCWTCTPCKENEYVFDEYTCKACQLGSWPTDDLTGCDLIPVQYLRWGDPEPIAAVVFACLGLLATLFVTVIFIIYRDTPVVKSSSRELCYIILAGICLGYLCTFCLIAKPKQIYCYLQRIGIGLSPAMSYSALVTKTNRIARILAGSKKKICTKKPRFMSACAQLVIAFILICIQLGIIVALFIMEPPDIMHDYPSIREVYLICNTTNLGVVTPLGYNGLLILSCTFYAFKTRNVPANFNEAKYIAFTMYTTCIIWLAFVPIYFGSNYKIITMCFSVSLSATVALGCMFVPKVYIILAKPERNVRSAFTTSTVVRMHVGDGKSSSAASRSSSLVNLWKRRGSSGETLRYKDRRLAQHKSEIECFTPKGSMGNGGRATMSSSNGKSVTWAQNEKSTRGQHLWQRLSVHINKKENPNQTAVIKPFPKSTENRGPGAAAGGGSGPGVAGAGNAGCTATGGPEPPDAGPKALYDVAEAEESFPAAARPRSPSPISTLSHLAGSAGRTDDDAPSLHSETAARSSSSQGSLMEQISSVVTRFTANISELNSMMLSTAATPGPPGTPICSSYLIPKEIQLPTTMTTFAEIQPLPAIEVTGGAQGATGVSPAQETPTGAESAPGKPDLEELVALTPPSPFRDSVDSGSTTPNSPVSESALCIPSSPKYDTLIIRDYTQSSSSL

T1 sequence (P23385 19-1199): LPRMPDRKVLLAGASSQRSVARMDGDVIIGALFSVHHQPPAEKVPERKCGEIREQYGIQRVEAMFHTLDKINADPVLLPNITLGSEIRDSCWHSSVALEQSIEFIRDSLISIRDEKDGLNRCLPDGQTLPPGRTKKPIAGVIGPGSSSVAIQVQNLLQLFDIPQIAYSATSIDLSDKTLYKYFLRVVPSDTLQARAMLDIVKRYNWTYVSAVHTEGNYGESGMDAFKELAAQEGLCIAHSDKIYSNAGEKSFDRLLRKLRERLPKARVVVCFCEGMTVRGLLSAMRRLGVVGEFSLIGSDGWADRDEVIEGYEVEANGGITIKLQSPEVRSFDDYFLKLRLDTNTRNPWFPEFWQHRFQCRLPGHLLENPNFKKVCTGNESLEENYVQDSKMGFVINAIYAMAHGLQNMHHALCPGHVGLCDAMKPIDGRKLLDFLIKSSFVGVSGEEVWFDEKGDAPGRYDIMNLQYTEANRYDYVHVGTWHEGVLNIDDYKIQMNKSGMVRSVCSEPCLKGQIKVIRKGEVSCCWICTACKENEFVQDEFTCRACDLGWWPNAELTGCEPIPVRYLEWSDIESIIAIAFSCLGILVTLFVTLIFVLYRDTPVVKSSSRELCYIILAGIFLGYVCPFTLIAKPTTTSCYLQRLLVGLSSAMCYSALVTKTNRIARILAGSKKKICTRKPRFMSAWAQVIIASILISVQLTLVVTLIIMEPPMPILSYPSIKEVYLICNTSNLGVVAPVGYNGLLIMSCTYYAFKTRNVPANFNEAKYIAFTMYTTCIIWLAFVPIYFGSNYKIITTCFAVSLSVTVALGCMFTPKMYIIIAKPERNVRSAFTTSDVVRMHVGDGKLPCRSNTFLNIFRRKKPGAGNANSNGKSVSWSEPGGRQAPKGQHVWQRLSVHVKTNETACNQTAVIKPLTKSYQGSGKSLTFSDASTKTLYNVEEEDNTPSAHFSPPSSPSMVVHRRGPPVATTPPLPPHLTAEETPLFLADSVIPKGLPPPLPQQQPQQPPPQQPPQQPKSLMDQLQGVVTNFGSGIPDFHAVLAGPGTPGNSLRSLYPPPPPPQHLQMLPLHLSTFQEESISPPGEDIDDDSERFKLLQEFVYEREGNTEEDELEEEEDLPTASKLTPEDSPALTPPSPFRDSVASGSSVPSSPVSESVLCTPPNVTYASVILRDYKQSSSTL

`NC(C(=O)O)c1cc(O)ccc1Cl` (racemic) [CHPG, 2-Chloro-5-hydroxyphenylglycine] was tested, and the EC50 (mGluR1a) was 80 µM and the EC50 (mGluR5b) was 57 µM.
